Measured values reported in patent US20140142180A1, “METHODS OF TREATING TUMORS HAVING ELEVATED MCT1 EXPRESSION” (Whitehead Institute for Biomedical Research, priority 2012, published 2014).

Experiments:
BT-549 cells = assay: Cell survival assay, BT-549; assay type: cell-based, human
Protocol: (§1) Cell lines (5,000-20,000) were seeded in 96-well plates and treated with indicated amounts of 3-BrPA. After 3 days of treatment, CellTiter-Glo (Promega) and/or CyQuant (Invitrogen) were used to measure survival percentage for each concentration compared to untreated cells. FACS analysis with Annexin V and 7AAD staining was performed according to manufacturer's manual (BD Pharmingen).
(§2) 15 cell lines (BT-474, BT-549, CAK1-1, CAL-51, HCC-70, HS578T, JURKAT, MDA-MB-157, MDA-MB-231, MDA-MB-453, MDA-MB-468, PC-3, SK-BR-3, T47D, ZR-75-1) were treated with 3-BrPA (0-300 μM). After 3 days, cell viability was quantified via CellTiter-Glo assay and an IC50 from the resulting dose-response curve was interpolated using a nonlinear regression model. Transcriptome-wide normalized mRNA levels from gene expression profiling experiments performed on the Affymetrix Human Genome U133 Plus 2.0 chip were obtained from the CCLE for all 15 cell lines. The mRNA expression pattern across all 15 samples for each of the genes was then correlated with the IC50 values. Similar correlation analysis was performed using OCR/ECAR values for each cell line.

HCC-70 cells = assay: Cell survival assay, HCC-70; assay type: cell-based, human; details: HCC-70, increased MCT1 level
Protocol: as §1, §2

BT-20 cells = assay: Cell survival assay, BT-20; assay type: cell-based, human
Protocol: as §1

MDA-MB-468 cells = assay: Cell survival assay, MDA-MB-468; assay type: cell-based, human
Protocol: as §1, §2

MDA-MB-453 cells = assay: Cell survival assay, MDA-MB-453; assay type: cell-based, human; details: MDA-MB-453, low MCT1 level
Protocol: as §1, §2

[1] = tested on: AMPK and ACC phosphorylation; assay: Immunoblot of AMPK and ACC phosphorylation, wild type KBM7 cells; assay type: cell-based, human; details: 50 μM 3-BrPA
[2] = tested on: AMPK and ACC phosphorylation; assay: Immunoblot of AMPK and ACC phosphorylation, MCT1-null KBM7 cells; assay type: cell-based, human; details: 50 μM 3-BrPA
Protocol: Briefly, cells were rinsed twice in ice-cold PBS and harvested in a standard lysis buffer containing 50 mM Hepes, pH 7.4, 40 mM NaCl, 2 mM EDTA, 1.5 mM orthovanadate, 50 mM NaF, 10 mM pyrophosphate, 10 mM glycerophosphate, protease inhibitors (Roche) and 1% Triton-X-100. Proteins from total lysates were resolved by 8-12% SDS-PAGE, and analyzed by immunoblotting as described using anti-MCT1 (Millipore; Ab3540), anti-RPS6 and anti-raptor antibodies (1:1000)^50. For quantitation, ImageJ software was used and the signals were normalized using an equal loading control (RPS6/Raptor). Immunohistochemistry was performed on formalin-fixed paraffin embedded sections using a boiling Dako antigen retrieval method (Dako). A 1:500 dilution of the anti-MCT1 antibody was used for staining.

[3] = tested on: glyceraldehyde phosphate dehydrogenase (GAPDH); assay: LC-MS metabolite profiling, wild type relative to MCT1-null KBM7 cells; assay type: cell-based, human
Protocol: The bioenergetic profiles of KBM7 and MDA-MB-231 cells in response to 3-BrPA were determined using a Seahorse Bioscience XF24 Extracellular Flux Analyzer (Seahorse Bioscience). For the indicated experiments, 250,000 KBM7 or 40,000 MDA-MB-231 cells seeded in Seahorse tissue culture plates using unbuffered RPMI (10 mM Glucose). KBM7 cells were attached to the plates using CellTak (Clontech) one hour prior to the start of the experiment. For AUC (area under the curve) OCR and ECAR measurements, three consecutive readings were performed for each cell line. For experiments where 3-BrPA is used, after 3 consecutive readings, 50 μM 3-BrPA was injected through port A and ECAR and OCAR levels were measured. Lactate production was measured as described previously^50. For ATP assays, 20,000 cells were seeded and treated for 30 min with indicated amounts of 3-BrPA and ATP levels were determined using a luciferase-based assay (Promega). For metabolite measurements, 10 million wild type and MCT1 null KBM7 cells were cultured for 1 hour in presence of 50 μM 3-BrPA before metabolite extraction. Then, cells were rapidly washed three times with cold PBS, and then metabolites were extracted by addition of 80% ice-cold methanol followed after incubation on dry ice for 15 min. Endogenous metabolite profiles were obtained using LC-MS as described^51. Metabolite levels (n=3) were normalized to cell number.

[4] = tested on: MDA-MB-231 cells stably expressing MCT1; assay: Subcutaneous MDA-MB-231 xenografts in nude mice; assay type: in vivo; details: tumors with forced MCT1 expression vs untreated or GFP-expressing, 8 mg/kg, 3 weeks
Protocol: All animal studies and procedures were approved by the MIT Institutional Animal Care and Use Committee. 6-10 week old nude mice (Taconic) were used for generating all xenografts. In subcutaneous xenografts, mice were injected at two sites in the dorsal region, under isofluorane anesthesia with 100 μl/injection of tumor cell suspension in RPMI with 20% matrigel. 2.5 million MDA-MB-231 cells were injected. After 2 weeks, tumors were measured and mice were separated for PBS and 3-BrPA treatment (8 mg/kg). After 3 weeks, tumors were harvested, their dimensions were measured with a caliper and tumor volume estimated according to the formula: (0.5*W*L*L). Tumors were fixed in formalin for later processing.
To test if MCT1 expression can affect the sensitivity of established tumors to 3-BrPA, parental MDA-MB-231 cells, which express low levels of MCT1 (Supplemental FIG. 4), were injected subcutaneously into the left flanks of Nude mice, while MDA-MB-231 cells stably expressing MCT1 were injected into the contralateral flanks of the same animals. We allowed palpable subcutaneous tumors to form for 2 weeks before beginning 3-BrPA administration.

[5] = wild type relative to MCT1-null KBM7, 50 μM, 1 hour, LC-MS

With `O=C(O)C(=O)CBr` [3-BrPA, 3-bromopyruvic acid] the “sensitivity to 3-BrPA” value (BT-549 cells; BT-549, increased MCT1 level) was “sensitive”, the “sensitivity to 3-BrPA with suppression of GAPDH expression by RNAi” value (BT-549 cells; BT-549 expressing shRNA targeted to GAPDH vs GFP control) was “markedly increased the sensitivity” and the “sensitivity to 3-BrPA with partial suppression of MCT1 by RNAi” value (BT-549 cells; BT-549 expressing shRNAs targeting MCT1) was “sufficient to confer resistance”. The “sensitivity to 3-BrPA” value (HCC-70 cells) was “sensitive”, the “sensitivity to 3-BrPA” value (BT-20 cells; BT-20, increased MCT1 level) was “sensitive” and the “sensitivity to 3-BrPA with partial suppression of MCT1 by RNAi” value (BT-20 cells; BT-20 expressing shRNAs targeting MCT1) was “sufficient to confer resistance”. The “sensitivity to 3-BrPA” value (MDA-MB-468 cells; MDA-MB-468, increased MCT1 level) was “sensitive”, the “sensitivity to 3-BrPA with suppression of GAPDH expression by RNAi” value (MDA-MB-468 cells; MDA-MB-468 expressing shRNA targeted to GAPDH vs GFP control) was “markedly increased the sensitivity” and the “sensitivity to 3-BrPA” value (MDA-MB-453 cells) was “resistant”. For the same molecule, the “AMPK and ACC phosphorylation, markers of energy stress” value [1] was “robustly increasing”, the “AMPK and ACC phosphorylation, markers of energy stress” value [2] was “did not affect” and the “intermediates of the pentose phosphate pathway” value ([3]; wild type KBM7, 50 μM, 1 hour, LC-MS) was “accumulated intermediates of the pentose phosphate pathway”. For the same molecule, the “glycolytic intermediates after glyceraldehyde 3-phosphate” value [3, 5] was “depletion of those that come after”, the “glycolytic intermediates preceding glyceraldehyde 3-phosphate” value [3, 5] was “accumulation of the glycolytic intermediates that precede glyceraldehyde 3-phosphate” and the “cause of anti-glycolytic effects from metabolite profiling” value ([3]; wild type vs MCT1-null KBM7 metabolite profiling) was “strongly implicates GAPDH inhibition”. The “tumor size after 3-BrPA treatment” value [4] was “significantly smaller”.
